In publication PMC7995547, “ω‐Imidazolyl‐alkyl derivatives as new preclinical drug candidates for treating non‐alcoholic steatohepatitis” (Physiological Reports, 2021):

Experiments:
Assay type in all cases: in vivo, Wistar rats
[1] = test system: HFD‐induced NASH rat model (liver); experiment: Area of connective tissue in the liver (Mallory‐Azan staining), NASH rat model; details: compound overall
Protocol: (§1) Studies were done using Wistar rats of female sex by the Institute of Pharmacology and Biochemistry at Minsk. The animals were 80–90 days old and weighed 180–200 g. They had free access to a liquid Lieber‐DeCarli (LDC) diet (Lieber et al., 2004) and were housed under standard conditions meaning a 12‐h light/dark cycle at 22 ± 2°C and 55 ± 5% humidity.
(§2) Group 1 was designated as the first control group; it was fed a normal standard solid diet. Group 2, as the second control group, was fed a standard amount of fat as a part of the liquid “physiological,” non‐high fat LDC diet. All other groups received the liquid ‘disease‐causing’ LDC diet (Table 2), including a high content of unsaturated fatty acids.
(§3) Both LDC diets were in a liquid form as produced by ssniff‐Spezialdiäten GmbH, Soest (Germany). The feed was provided over the entire experimental period of 16 weeks; however, the corresponding experimental substances were only administered in the last four weeks (Figure 3).
(§4) The experimental substances I‐ol, I‐an, and UDCA were dissolved in a 0.8% aqueous HPMC gel to obtain the following concentrations: (1) I‐ol at 0.4, 4, and 40 mg/kg body weight (b.w.), (2) I‐an at 0.4, 4, and 40 mg/kg b.w., and (3) UDCA at 40 mg/kg b.w. The Group‐2 and −3 rats received only HPMC as placebo. Each test encompassed 6–8 rats that were put up in a separate cage. The rats were fed ad libitum, and their intake per cage was controlled daily. In order to ensure an exact daily reproducible dosage, the experimental substances or only HPMC was administered intragastrically via oral gavage. Basically, the drug therapy of a chronic disease is the more efficient the higher the adherence of the affected patients. This is generally higher with peroral administration than with any other form of application. At the end of the experiment, the animals were sacrificed under fasting conditions, by aorta dissection and exsanguination, after anesthetizing with an intraperitoneal injection of 5% pentobarbital solution.
Liver tissue sections were subject to the Mallory‐Azan (Heidenhain Azan) staining method for visualizing the connective tissues. This method was a modification of the original Mallory staining protocol, wherein azocarmin with a mixture of aniline blue and orange G was used. In this method, the collagen tissue and basophilic granules turn blue, the muscle tissue and acidophilic granules turn orange to red, and the cell nuclei and cytoplasm turn red. Elastic fibers remain unstained; however, they might turn yellow or pink. The proportion of positively stained liver tissue to the total area of the histological slide was determined quantitatively.

[2] = test system: HFD‐induced NASH rat model (liver); experiment: Oxidative stress (ROS status) in the liver, HFD-induced NASH rat model; details: liver
Protocol: as §1
The rats were divided into 10 groups based on the diets and experimental substances administered (Figure 2).
as §2, §3, §4
The formation of ROS in the rat liver was measured using NADPH‐induced chemiluminescence as described by Müller‐Peddinghaus et al. (Muller‐Peddinghaus, 1987). Luminol and lucigenin were used for detecting the superoxide radical anion (SRA) and hydrogen peroxide. Liver pieces were homogenized in 0.1 M sodium phosphate buffer, pH 7.4; the homogenates were centrifuged at 9,000 × g at 0°C; and aliquots were used for subsequent measurements. Reduced glutathione (GSH) was estimated via a modified Ellman's method (Ellman, 1959), in which 0.2 mL of the liver homogenate supernatant was added to 1.6 mL of an EDTA/sodium phosphoric acid solution and the absorbance noted at 412 nm against blank values. GSH solution produced immediately before application served as the standard. The end products of the lipid peroxidation reaction were equivalent to the thiobarbituric acid‐reacting substances (TBARS), and their concentration was measured according to the method described by Buege et al. (Buege & Aust, 1978). Enzymatic activities of microsomal glutathione reductase (GR) and cytosolic glutathione peroxidase (GPx) were measured according to the methodology of Buko et al. (Buko et al., 2002). Catalase activity was determined according to the spectroscopic methodology described by Beers et al. (Beers & Sizer, 1952) using hydrogen peroxide as the substrate.

[3] = test system: HFD‐induced NASH rat model (serum); experiment: Liver enzyme activities and bilirubin in serum, NASH rat model
Protocol: as §1, §2, §3, §4
(§5) The activities of the liver enzymes aspartate aminotransferase (AST), alanine aminotransferase (ALT), alkaline phosphatase (AP), and γ‐glutamyl transferase (γ‐GT) as well as bilirubin and triglyceride levels in the serum were determined as described by the instructions of BIO‐LA‐tests kit (Erba Lachema, Brno, Czech Republic).

[4] = test system: HFD‐induced NASH rat model (liver and serum); experiment: End products of fat metabolism (liver and serum lipids), NASH rat model; details: UDCA 40 mg/kg b.w.
Protocol: as §1, §2, §3, §4, §5
Extraction of lipids was performed using a solvent composed of chloroform and methanol (2:1 v/v). Thin‐layer chromatography (TLC) was used to separate off neutral lipids and phospholipids. Silicagel G 60 plates (0.25 mm thick) were used. The lipids were separated by ascending chromatography in a system composed of hexane:diethylic ether:glacial acetic acid (73:25:2; v/v/v). They were visualized by iodine vapor and the spots corresponding to triglycerides and cholesterol were scraped off and eluted with methanol for spectrophotometric evaluation. Triglyceride and cholesterol levels were determined using the BIO‐LA‐test kit (Erba Lachema, Brno, Czech Republic). Phospholipid concentration was determined by measuring the levels of phosphomolybdate using an inorganic phosphate reagent containing molybdate (Findlay & Evans, 1987). VLDL level was determined by using the manganese precipitation method (Burstein & Scholnick, 1973) after partial modification (Hirano et al., 2003).

[5] = test system: HFD‐induced NASH rat model (serum); experiment: Adipocytokines and glucose metabolism in serum, NASH rat model
Protocol: as §1, §2, §3, §4
The concentrations of adiponectin and TNFα were measured using ELISA kits sold by BioCat GmbH (Heidelberg, Germany), whereas the one for determining leptin level was procured from BioVendor Laboratory Medicine Inc. (Brno, Czech Republic). Insulin concentration was determined using the radioimmunoassay kit RIO‐insulin‐PG‐J125 (IBOCH, Minsk, Belarus). Serum glucose level was determined based on the “Accu‐Check Active blood glucose” monitoring method developed by Roche‐Diagnostics.

[6] = test system: HFD‐induced NASH rat model (liver); experiment: Liver histopathology, semi‐quantitative evaluation, NASH rat model; design: key to Steatosis score / Balooning score: 0, none; 1, ≤25%; 2, 26–50%; 3, ≥51–75% of liver parenchyma
Protocol: as §1, §2, §3, §4
Pieces of liver tissue measuring 1 × 2 × 0.5 mm were chosen randomly and fixed for a week in the mixture of 1% formaldehyde and 1% paraformaldehyde in Sorensen's phosphate buffer (pH 7.4) (Morphisto GmbH, Frankfurt/Main). After this the pieces were kept in 2.5% glutaraldehyde in same buffer, rinsed and then post‐fixed in 1% solution of osmium tetroxide on the Sorensen's phosphate buffer (pH 7.4). After fixation, the liver samples were dehydrated and embedded in the pre‐polymerized mixture of methyl methacrylate and butyl methacrylate (1:4, v/v) containing 2,4‐dichlorbenzoyl peroxide as a catalyst.
[…] A semi‐quantitative evaluation of the sections was performed according to the procedure described by Koppe et al. (Koppe et al., 2004).

[7] = average over doses (I‐ol, I‐an), UDCA 40 mg/kg b.w.
[8] = serum, average over doses (I‐ol, I‐an), UDCA 40 mg/kg b.w.
[9] = serum, number: highest concentration (40 mg/kg b.w.), words: compound overall
[10] = average over doses (I‐ol, I‐an)
[11] = 40.0 mg/kg b.w. + HFD, H.E.‐stained liver slices

Structure (SMILES): C[C@H](CCC(=O)O)[C@H]1CC[C@H]2[C@@H]3[C@@H](O)C[C@@H]4C[C@H](O)CC[C@]4(C)[C@H]3CC[C@]12C [UDCA, ursodeoxycholic acid, reference compound]
- Effect on area of connective tissue in the liver (in words) [1]: no therapeutic effect
- Increase in GR activity compared to disease group ([2]; I‐ol, I‐an groups overall, UDCA 40 mg/kg b.w.): 24%
- Decrease in SRA level compared to disease group ([2]; average over 0.4, 4, 40 mg/kg b.w. (I‐ol, I‐an), UDCA 40 mg/kg b.w., oral gavage daily, last 4 of 16 weeks HFD): 30%
- Decrease in TBARS level compared to disease group [2, 7]: 27%
- Reduction of the effect of HFD on the SRA level [2, 7]: 84%
- Reduction of the effect of HFD on the TBARS level [2, 7]: 63%
- Effect on GSH level (in words) ([2]; compound overall): overall ineffective
- Decrease in hydrogen peroxide level compared to disease group ([2]; highest concentration (40 mg/kg b.w.)): no significant effect
- Effect of HFD nullified, GR activity increased by (on an average) ([2]; relative to the effect of HFD): 99%
- Decrease in serum bilirubin level compared to disease group ([3]; average over doses, UDCA 40 mg/kg b.w.): no therapeutic effect
- Decrease in γ‐GT enzymatic activity compared to disease group [3, 8]: 30%
- Reduction of the effect of HFD on γ‐GT activity [3, 8]: 73%
- Decrease in ALT enzymatic activity compared to disease group ([3]; serum, highest concentrations (40 mg/kg b.w.)): 15%
- Reduction of the effect of HFD on ALT activity ([3]; serum, highest concentrations (40 mg/kg b.w.), b87: dose not stated): 50%
- Decrease in AP enzymatic activity compared to disease group [3, 9]: no therapeutic effect
- Decrease in AST enzymatic activity compared to disease group [3, 9]: no therapeutic effect
- Decrease in liver triglyceride levels compared to disease group [4, 10]: 17%
- Reduction of the effect of HFD on liver triglyceride levels [4, 10]: 39%
- Decrease in liver phospholipid levels compared to disease group ([4]; average over doses): no therapeutic effect
- Decrease in serum LDL cholesterol ([4]; average over doses): non‐significant trend toward lowering the serum LDL level
- Decrease in serum triglyceride levels compared to disease group ([4]; average over doses): no therapeutic effect
- Decrease in serum glucose level ([5]; 40 mg/kg b.w.): 26%
- Reversal of the effect of HFD on serum glucose level ([5]; 40 mg/kg b.w.): 100%
- Reduction of the effect of HFD on serum TNF‐α level ([5]; average over doses (I‐ol), UDCA 40 mg/kg b.w.): 75%
- Decrease in serum TNF‐α level compared to disease group [5, 7]: 56%
- Decrease in serum leptin compared to disease group [5, 7]: 21%
- Increase in serum adiponectin compared to disease group [5, 7]: 42%
- Reduction of the effect of HFD on serum adiponectin ([5]; average over doses (I‐ol, I‐an), UDCA 40 mg/kg b.w. (elevated the concentration by)): 52%
- Reduction of the effect of HFD on serum leptin ([5]; average over doses (I‐ol, I‐an), UDCA 40 mg/kg b.w. (reduced leptin concentration)): 72%
- Balooning score [6, 11]: 0
- Inflammation score [6, 11]: 1 (1, <5 signs of inflammation)
- Steatosis score [6, 11]: 0–1
- Effect on liver histology (in words) ([6]; animals with NASH (HFD)): improved liver histology
